{"source": "patent US5294617A", "about": "“Angiotensin II receptor blocking 2,3,6 substituted quinazolinones” (American Cyanamid Company, priority 1993, dated 1994)", "system": "ANGIOTENSIN II (AII) VASOPRESSOR RESPONSE", "assay": "AII Challenge: angiotensin II vasopressor response in conscious spontaneously hypertensive rats", "type": "in vivo, Conscious Male Okamoto-Aoki SHR (rat)", "conditions": "10 mg/kg i.v.; for % Inhibition / Average Change: SHR n=2; for Response After AII / Response Change / Control Before AII: individual rat, SHR", "description": "By administering a compound of this invention to a rat, and then challenging with angiotensin II, a blockage of the vasopressor response is realized.\nConscious Male Okamoto-Aoki SHR, 16-20 weeks old, weighing approximately 330 g are purchased from Charles River Labs (Wilmington, Mass.). Conscious rats are restrained in a supine position with elastic tape. The area at the base of the tail is locally anesthetized by subcutaneous infiltration with 2% procaine. The ventral caudal artery and vein are isolated, and a cannula made of polyethylene (PE) 10-20 tubing (fused together by heat) is passed into the lower abdominal aorta and vena cava, respectively. The cannula is secured, heparinized (1,000 I.U./ml), sealed and the wound is closed. The animals are placed in plastic restraining cages in an upright position. The cannula is attached to a Statham P23Db pressure transducer, and pulsatile blood pressure is recorded to 10-15 minutes with a Gould Brush recorder. (Chan et al., (Drug Development Res., 18:75-94, 1989).\nAngiotensin II (human sequence, Sigma Chem. Co., St. Louis, Mo.) of 0.05 and 0.1 ug/kg i.v. is injected into all rats (predosing response). Then a test compound, vehicle or a known angiotensin II antagonist is administered i.v., i.p. or orally to each set of rats. The two doses of angiotensin II are given to each rat again at 30, 60, 90, 120, 180, 240 and 300 minutes post dosing the compound or vehicle. The vasopressor response of angiotensin II is measured for the increase in systolic blood pressure in mmHg. The percentage of antagonism or blockade of the vasopressor response of angiotensin II by a compound is calculated using the vasopressor response (increase in systolic blood pressure) of angiotensin II of each rat predosing the compound as 100%. A compound is considered active if at 30 mg/kg i.v. it antagonized at least 50% of the response.", "key": {"[1]": {"conditions": "AII 0.05 mcg/kg IV, 30 min post dose"}, "[2]": {"conditions": "AII 0.05 mcg/kg IV, 60 min post dose"}, "[3]": {"conditions": "AII 0.05 mcg/kg IV, 90 min post dose"}, "[4]": {"conditions": "AII 0.05 mcg/kg IV, 120 min post dose"}, "[5]": {"conditions": "AII 0.05 mcg/kg IV, 180 min post dose"}, "[6]": {"conditions": "AII 0.05 mcg/kg IV, 240 min post dose"}, "[7]": {"conditions": "AII 0.05 mcg/kg IV, 300 min post dose"}, "[8]": {"conditions": "AII 0.1 mcg/kg IV, 30 min post dose"}, "[9]": {"conditions": "AII 0.1 mcg/kg IV, 60 min post dose"}, "[10]": {"conditions": "AII 0.1 mcg/kg IV, 90 min post dose"}, "[11]": {"conditions": "AII 0.1 mcg/kg IV, 120 min post dose"}, "[12]": {"conditions": "AII 0.1 mcg/kg IV, 180 min post dose"}, "[13]": {"conditions": "AII 0.1 mcg/kg IV, 240 min post dose"}, "[14]": {"conditions": "AII 0.1 mcg/kg IV, 300 min post dose"}, "[15]": {"conditions": "AII 0.05 mcg/kg IV, 30 min post dose, 10 mg/kg"}, "[16]": {"conditions": "AII 0.05 mcg/kg IV, 60 min post dose, 10 mg/kg"}, "[17]": {"conditions": "AII 0.05 mcg/kg IV, 90 min post dose, 10 mg/kg"}, "[18]": {"conditions": "AII 0.05 mcg/kg IV, 180 min post dose, 10 mg/kg"}, "[19]": {"conditions": "AII 0.05 mcg/kg IV, 240 min post dose, 10 mg/kg"}, "[20]": {"conditions": "AII 0.05 mcg/kg IV, 300 min post dose, 10 mg/kg"}, "[21]": {"conditions": "AII 0.1 mcg/kg IV, 30 min post dose, 10 mg/kg"}, "[22]": {"conditions": "AII 0.1 mcg/kg IV, 60 min post dose, 10 mg/kg"}, "[23]": {"conditions": "AII 0.1 mcg/kg IV, 90 min post dose, 10 mg/kg"}, "[24]": {"conditions": "AII 0.1 mcg/kg IV, 120 min post dose, 10 mg/kg"}, "[25]": {"conditions": "AII 0.1 mcg/kg IV, 180 min post dose, 10 mg/kg"}, "[26]": {"conditions": "AII 0.1 mcg/kg IV, 240 min post dose, 10 mg/kg"}, "[27]": {"conditions": "AII 0.1 mcg/kg IV, 300 min post dose, 10 mg/kg"}}, "note": "Several values for one entry are separate records, joined by “and”; a condition that tells them apart may be missing. Equal values may be shown once.", "data": [{"smiles": "CCCCc1nc2ccc([C@H]3C[C@H](CO)ON3C)cc2c(=O)n1Cc1ccc(-c2ccccc2-c2nnn[nH]2)cc1", "note": "(relative stereo) [Example 16, TRANS-2-butyl-6-[5-(hydroxymethyl)-2-methyl-3-isoxazolidinyl]-3-[[2'-(1H-tetrazol-5-yl)[1,1'-biphenyl]-4-yl]methyl]-4(3H)-quinazolinone]", "values": [{"measurement": "% Inhibition", "setting": "[1]", "result": 85, "unit": "%"}, {"measurement": "Average Change", "setting": "[1]", "result": 8, "unit": "mmHg"}, {"measurement": "% Inhibition", "setting": "[2]", "result": 76, "unit": "%"}, {"measurement": "Average Change", "setting": "[2]", "result": 12.5, "unit": "mmHg"}, {"measurement": "% Inhibition", "setting": "[3]", "result": 62, "unit": "%"}, {"measurement": "Average Change", "setting": "[3]", "result": 20, "unit": "mmHg"}, {"measurement": "% Inhibition", "setting": "[4]", "result": 67, "unit": "%"}, {"measurement": "Average Change", "setting": "[4]", "result": 17.5, "unit": "mmHg"}, {"measurement": "% Inhibition", "setting": "[5]", "result": 50, "unit": "%"}, {"measurement": "Average Change", "setting": "[5]", "result": 26.5, "unit": "mmHg"}, {"measurement": "% Inhibition", "setting": "[6]", "result": 50, "unit": "%"}, {"measurement": "Average Change", "setting": "[6]", "result": 26.5, "unit": "mmHg"}, {"measurement": "% Inhibition", "setting": "[7]", "result": 19, "unit": "%"}, {"measurement": "Average Change", "setting": "[7]", "result": 42.5, "unit": "mmHg"}, {"measurement": "% Inhibition", "setting": "[8]", "result": 81, "unit": "%"}, {"measurement": "Average Change", "setting": "[8]", "result": 10, "unit": "mmHg"}, {"measurement": "% Inhibition", "setting": "[9]", "result": 79, "unit": "%"}, {"measurement": "Average Change", "setting": "[9]", "result": 11.5, "unit": "mmHg"}, {"measurement": "% Inhibition", "setting": "[10]", "result": 77, "unit": "%"}, {"measurement": "Average Change", "setting": "[10]", "result": 12.5, "unit": "mmHg"}, {"measurement": "% Inhibition", "setting": "[11]", "result": 68, "unit": "%"}, {"measurement": "Average Change", "setting": "[11]", "result": 17.5, "unit": "mmHg"}, {"measurement": "% Inhibition", "setting": "[12]", "result": 54, "unit": "%"}, {"measurement": "Average Change", "setting": "[12]", "result": 25, "unit": "mmHg"}, {"measurement": "% Inhibition", "setting": "[13]", "result": 54, "unit": "%"}, {"measurement": "Average Change", "setting": "[13]", "result": 25, "unit": "mmHg"}, {"measurement": "% Inhibition", "setting": "[14]", "result": 26, "unit": "%"}, {"measurement": "Average Change", "setting": "[14]", "result": 40, "unit": "mmHg"}, {"measurement": "Response After AII", "setting": "[15]", "result": "198 mmHg and 190 mmHg"}, {"measurement": "Response Change", "setting": "[15]", "result": "3 mmHg and 13 mmHg"}, {"measurement": "Response After AII", "setting": "[16]", "result": "200 mmHg and 180 mmHg"}, {"measurement": "Response Change", "setting": "[16]", "result": "5 mmHg and 20 mmHg"}, {"measurement": "Response After AII", "setting": "[3]", "result": 190, "unit": "mmHg"}, {"measurement": "Response After AII", "setting": "[17]", "result": 215, "unit": "mmHg"}, {"measurement": "Response Change", "setting": "[17]", "result": "10 mmHg and 30 mmHg"}, {"measurement": "Response After AII", "setting": "[4]", "result": 210, "unit": "mmHg"}, {"measurement": "Response Change", "setting": "AII 0.05 mcg/kg IV, 120 min post dose, 10 mg/kg", "result": "15 mmHg and 20 mmHg"}, {"measurement": "Response After AII", "setting": "[5]", "result": 218, "unit": "mmHg"}, {"measurement": "Response After AII", "setting": "[18]", "result": 195, "unit": "mmHg"}, {"measurement": "Response Change", "setting": "[18]", "result": "23 mmHg and 30 mmHg"}, {"measurement": "Response After AII", "setting": "[6]", "result": 218, "unit": "mmHg"}, {"measurement": "Response After AII", "setting": "[19]", "result": 195, "unit": "mmHg"}, {"measurement": "Response Change", "setting": "[19]", "result": "23 mmHg and 30 mmHg"}, {"measurement": "Response After AII", "setting": "[7]", "result": 230, "unit": "mmHg"}, {"measurement": "Response After AII", "setting": "[20]", "result": 225, "unit": "mmHg"}, {"measurement": "Response Change", "setting": "[20]", "result": "35 mmHg and 50 mmHg"}, {"measurement": "Response After AII", "setting": "[21]", "result": "205 mmHg and 175 mmHg"}, {"measurement": "Response Change", "setting": "[21]", "result": "15 mmHg and 5 mmHg"}, {"measurement": "Response After AII", "setting": "[22]", "result": "210 mmHg and 173 mmHg"}, {"measurement": "Response Change", "setting": "[22]", "result": "15 mmHg and 8 mmHg"}, {"measurement": "Response After AII", "setting": "[10]", "result": 210, "unit": "mmHg"}, {"measurement": "Response After AII", "setting": "[23]", "result": 185, "unit": "mmHg"}, {"measurement": "Response Change", "setting": "[23]", "result": "10 mmHg and 15 mmHg"}, {"measurement": "Response After AII", "setting": "[24]", "result": "220 mmHg and 200 mmHg"}, {"measurement": "Response Change", "setting": "[24]", "result": "20 mmHg and 15 mmHg"}, {"measurement": "Response After AII", "setting": "[25]", "result": "215 mmHg and 205 mmHg"}, {"measurement": "Response Change", "setting": "[25]", "result": "15 mmHg and 35 mmHg"}, {"measurement": "Response After AII", "setting": "[26]", "result": "215 mmHg and 205 mmHg"}, {"measurement": "Response Change", "setting": "[26]", "result": "15 mmHg and 35 mmHg"}, {"measurement": "Response After AII", "setting": "[27]", "result": "250 mmHg and 230 mmHg"}, {"measurement": "Response Change", "setting": "[27]", "result": "30 mmHg and 50 mmHg"}, {"measurement": "Control Before AII", "setting": "before AII 0.05 mcg/kg IV, 30 min post dose, 10 mg/kg", "result": "195 mmHg and 177 mmHg"}, {"measurement": "Control Before AII", "setting": "before AII 0.05 mcg/kg IV, 60 min post dose, 10 mg/kg", "result": "195 mmHg and 160 mmHg"}, {"measurement": "Control Before AII", "setting": "before AII 0.05 mcg/kg IV, 90 min post dose, 10 mg/kg", "result": "205 mmHg and 160 mmHg"}, {"measurement": "Control Before AII", "setting": "before AII 0.05 mcg/kg IV, 120 min post dose, 10 mg/kg", "result": "195 mmHg and 190 mmHg"}, {"measurement": "Control Before AII", "setting": "before AII 0.05 mcg/kg IV, 180 min post dose, 10 mg/kg", "result": "195 mmHg and 165 mmHg"}, {"measurement": "Control Before AII", "setting": "before AII 0.05 mcg/kg IV, 240 min post dose, 10 mg/kg", "result": "195 mmHg and 165 mmHg"}, {"measurement": "Control Before AII", "setting": "before AII 0.05 mcg/kg IV, 300 min post dose, 10 mg/kg", "result": "195 mmHg and 175 mmHg"}, {"measurement": "Control Before AII", "setting": "before AII 0.1 mcg/kg IV, 30 min post dose, 10 mg/kg", "result": "190 mmHg and 170 mmHg"}, {"measurement": "Control Before AII", "setting": "before AII 0.1 mcg/kg IV, 60 min post dose, 10 mg/kg", "result": "195 mmHg and 165 mmHg"}, {"measurement": "Control Before AII", "setting": "before AII 0.1 mcg/kg IV, 90 min post dose, 10 mg/kg", "result": "200 mmHg and 170 mmHg"}, {"measurement": "Control Before AII", "setting": "before AII 0.1 mcg/kg IV, 120 min post dose, 10 mg/kg", "result": "200 mmHg and 185 mmHg"}, {"measurement": "Control Before AII", "setting": "before AII 0.1 mcg/kg IV, 180 min post dose, 10 mg/kg", "result": "200 mmHg and 170 mmHg"}, {"measurement": "Control Before AII", "setting": "before AII 0.1 mcg/kg IV, 240 min post dose, 10 mg/kg", "result": "200 mmHg and 170 mmHg"}, {"measurement": "Control Before AII", "setting": "before AII 0.1 mcg/kg IV, 300 min post dose, 10 mg/kg", "result": "220 mmHg and 180 mmHg"}]}]}
